Results from the CheMixHub viscosity set.
“And” between values parts separate entries of the source, which are not always exact repeats. Equal values may be shown once.

Assay: xn = mol fraction of the nth substance listed

C1CN2CN3CCN(CN1C3)C2 + O
viscosity [mPa·s], 101 kPa
Details	x1 = 0.003598	x1 = 0.007216	x1 = 0.01073	x1 = 0.01425	x1 = 0.0183
293.15 K	1.032	1.083	1.146	1.232	1.347
298.15 K	0.928	0.985	1.047	1.129	1.24
300.15 K	0.843	0.899	0.961	1.04	1.136
305.15 K	0.764	0.822	0.88	0.96	1.054

CCC(N)C(=O)[O-].[K+] (stereo not given) + O
viscosity [mPa·s], 101.3 kPa
Details	x1 = 0.009	x1 = 0.019	x1 = 0.029	x1 = 0.039	x1 = 0.05	x1 = 0.06
303.15 K	0.988	1.223	1.552	1.974	2.518	3.297
308.15 K	0.884	1.093	1.394	1.74	2.206	2.877
313.15 K	0.803	0.984	1.257	1.559	1.962	2.544
318.15 K	0.728	0.89	1.133	1.399	1.757	2.257
323.15 K	0.67	0.813	1.032	1.272	1.585	2.017

CCCC[N+](CCCC)(CCCC)CCCC.[OH-] + O
viscosity [mPa·s], 101 kPa
Details	x1 = 0.00178	x1 = 0.00364	x1 = 0.007655	x1 = 0.0121	x1 = 0.01706	x1 = 0.02262	x1 = 0.0289
298.15 K	1.232	1.332	1.432	2.03	2.632	3.779	4.942
303.15 K	1.088	1.173	1.258	1.697	2.233	3.129	4.045
313.15 K	0.8712	0.9342	0.9951	1.319	1.659	2.198	2.857
323.15 K	0.716	0.7632	0.8107	1.04	1.289	1.692	2.115

NS(=O)(=O)c1cc(C(=O)O)c(NCc2ccco2)cc1Cl + O
viscosity, 101 kPa
Details	293.15 K	298.15 K	303.15 K	308.15 K	313.15 K
x1 = 2e-05	1.009 mPa·s	0.8969 mPa·s and 0.8925 mPa·s	0.8057 mPa·s and 0.8013 mPa·s	0.7295 mPa·s and 0.7245 mPa·s	0.6618 mPa·s and 0.6566 mPa·s
x1 = 9e-05	1.017 mPa·s and 1.02 mPa·s	0.9018 mPa·s and 0.9048 mPa·s	0.81 mPa·s and 0.8104 mPa·s	0.7336 mPa·s and 0.7368 mPa·s	0.6659 mPa·s
x1 = 0.0002	1.022 mPa·s and 1.018 mPa·s	0.9069 mPa·s and 0.9052 mPa·s	0.8174 mPa·s and 0.8126 mPa·s	0.7401 mPa·s and 0.7333 mPa·s	0.6718 mPa·s and 0.6662 mPa·s

O=C(O)CC(O)(CC(=O)O)C(=O)O + O
viscosity [mPa·s]
Details	293.15 K	298.15 K	303.15 K	308.15 K	313.15 K
100 kPa, x1 = 0.002	–	0.9112	0.8258	0.7481	0.6742
101.3 kPa, x1 = 0.00018	1.016	0.908	0.815	0.737	0.701
101.3 kPa, x1 = 0.0003607	1.025	0.917	0.822	0.741	0.675
101.3 kPa, x1 = 0.0005403	1.031	0.922	0.825	0.747	0.679

O=C([O-])C(F)(F)F.[Cs+] + O
viscosity [mPa·s], 101 kPa
Details	298.15 K	303.15 K	308.15 K	313.15 K
x1 = 0.00102	0.897	0.805	0.727	0.663
x1 = 0.00146	0.899	0.808	0.729	0.666
x1 = 0.002202	0.904	0.812	0.734	0.67
x1 = 0.00303	0.909	0.817	0.739	0.675
x1 = 0.003649	0.913	0.821	0.743	0.679
x1 = 0.004385	0.918	0.826	0.747	0.684
x1 = 0.005137	0.923	0.83	0.752	0.689
x1 = 0.005844	0.928	0.836	0.757	0.693
x1 = 0.006694	0.933	0.841	0.762	0.698
x1 = 0.007272	0.937	0.845	0.767	0.702
x1 = 0.008058	0.943	0.85	0.772	0.707
x1 = 0.008713	0.947	0.855	0.777	0.711
x1 = 0.009254	0.95	0.858	0.78	0.716
x1 = 0.01011	0.956	0.864	0.784	0.721

O=CO + O
Details	viscosity [mPa·s]
293.15 K, 101.33 kPa, x1 = 0.0417	1.098
293.15 K, 101.33 kPa, x1 = 0.1309	1.195
293.15 K, 101.33 kPa, x1 = 0.144	1.216
293.15 K, 101.33 kPa, x1 = 0.1574	1.215
293.15 K, 101.33 kPa, x1 = 0.2621	1.323
293.15 K, 101.33 kPa, x1 = 0.2708	1.328
293.15 K, 101.33 kPa, x1 = 0.281	1.344
293.15 K, 101.33 kPa, x1 = 0.2928	1.347
293.15 K, 101.33 kPa, x1 = 0.3352	1.394
293.15 K, 101.33 kPa, x1 = 0.338	1.4
293.15 K, 101.33 kPa, x1 = 0.3556	1.4
293.15 K, 101.33 kPa, x1 = 0.3729	1.414
293.15 K, 101.33 kPa, x1 = 0.4039	1.478
293.15 K, 101.33 kPa, x1 = 0.4086	1.48
293.15 K, 101.33 kPa, x1 = 0.4832	1.519
293.15 K, 101.33 kPa, x1 = 0.5055	1.525
293.15 K, 101.33 kPa, x1 = 0.5951	1.601
293.15 K, 101.33 kPa, x1 = 0.9418	1.68
298.15 K, 101 kPa, x1 = 0.0122	0.907
298.15 K, 101 kPa, x1 = 0.1286	1.041
298.15 K, 101 kPa, x1 = 0.525	1.379
298.15 K, 101.33 kPa, x1 = 0.1037	0.979
298.15 K, 101.33 kPa, x1 = 0.1496	1.029
298.15 K, 101.33 kPa, x1 = 0.1753	1.039
298.15 K, 101.33 kPa, x1 = 0.2194	1.076
298.15 K, 101.33 kPa, x1 = 0.3029	1.174
298.15 K, 101.33 kPa, x1 = 0.3271	1.219
298.15 K, 101.33 kPa, x1 = 0.3334	1.227
298.15 K, 101.33 kPa, x1 = 0.3355	1.228
298.15 K, 101.33 kPa, x1 = 0.3729	1.268
298.15 K, 101.33 kPa, x1 = 0.4205	1.305
298.15 K, 101.33 kPa, x1 = 0.4762	1.356
298.15 K, 101.33 kPa, x1 = 0.4906	1.36
298.15 K, 101.33 kPa, x1 = 0.5185	1.362
298.15 K, 101.33 kPa, x1 = 0.6055	1.427
298.15 K, 101.33 kPa, x1 = 0.9418	1.598
303.15 K, 101 kPa, x1 = 0.0501	0.849
303.15 K, 101 kPa, x1 = 0.1061	0.897
303.15 K, 101 kPa, x1 = 0.169	0.95
303.15 K, 101 kPa, x1 = 0.2404	0.994
303.15 K, 101 kPa, x1 = 0.3219	1.062
303.15 K, 101 kPa, x1 = 0.4159	1.156
303.15 K, 101 kPa, x1 = 0.5255	1.159
303.15 K, 101 kPa, x1 = 0.655	1.234
303.15 K, 101 kPa, x1 = 0.8103	1.288
313.15 K, 101.33 kPa, x1 = 0.0417	0.729
313.15 K, 101.33 kPa, x1 = 0.144	0.809
313.15 K, 101.33 kPa, x1 = 0.281	0.92

O=S(=O)([O-])NC1CCCCC1.[Cs+] + O
viscosity [mPa·s], 101 kPa
Details	x1 = 0.0009023	x1 = 0.001363	x1 = 0.001814	x1 = 0.002253	x1 = 0.002731	x1 = 0.00317	x1 = 0.003611	x1 = 0.004062
293.15 K	1.024	1.036	1.047	1.058	1.071	1.082	1.093	1.105
298.15 K	0.91	0.9199	0.9302	0.9399	0.951	0.9605	0.9704	0.9807
303.15 K	0.8151	0.8242	0.8329	0.8415	0.8512	0.8595	0.8685	0.8771
313.15 K	0.6672	0.6742	0.6815	0.6879	0.6959	0.7025	0.7097	0.7163
323.15 K	0.5584	0.5642	0.5696	0.5753	0.5813	0.5866	0.5921	0.5977

O=[N+]([O-])[O-].O=[N+]([O-])[O-].[Ba+2] + O
viscosity [mPa·s], 100 kPa
Details	x1 = 0.0003	x1 = 0.001	x1 = 0.003	x1 = 0.004	x1 = 0.006
298.15 K	0.888	0.9055	0.9235	0.943	0.965
323.15 K	0.5475	0.562	0.5775	0.59	0.603

[Cl-].[Cl-].[Cl-].[La+3] + O
viscosity [mPa·s]
Details	293.15 K	298.15 K	303.15 K	308.15 K	318.15 K
100 kPa, x1 = 0.000538	1.026	0.9124	0.8179	0.7374	–
100 kPa, x1 = 0.000907	1.037	0.922	0.8265	0.7452	–
100 kPa, x1 = 0.001802	–	0.9485	0.8506	0.7674	–
100 kPa, x1 = 0.003595	1.12	0.9971	0.8947	0.8106	–
100 kPa, x1 = 0.005372	–	–	0.9462	0.857	–
100 kPa, x1 = 0.007147	–	–	–	0.9116	–
100 kPa, x1 = 0.008936	–	–	1.076	0.9725	–
100 kPa, x1 = 0.0107	–	–	–	1.041	–
101 kPa, x1 = 0.008899	–	–	1.075	–	–
101.3 kPa, x1 = 0.0009	1.037	0.9217	0.8261	0.7453	0.618
101.3 kPa, x1 = 0.0018	–	–	–	0.7687	0.6382
101.3 kPa, x1 = 0.00893	–	–	1.076	0.9735	0.8112
101.3 kPa, x1 = 0.0177	1.818	1.623	1.46	1.322	1.102
101.3 kPa, x1 = 0.02631	2.522	2.246	2.016	1.824	1.516
101.3 kPa, x1 = 0.03478	3.611	3.199	2.857	2.573	2.12
101.3 kPa, x1 = 0.0431	5.287	4.642	4.114	3.678	2.992
101.3 kPa, x1 = 0.05127	7.977	6.922	6.069	5.371	4.29

CC(Cl)(Cl)Cl + O=C1CCCCC1
298.15 K, 101.33 kPa
Details	viscosity [mPa·s]
x1 = 0.053	1.896
x1 = 0.099	1.812
x1 = 0.151	1.725
x1 = 0.252	1.568
x1 = 0.352	1.43
x1 = 0.452	1.305
x1 = 0.551	1.192
x1 = 0.6	1.141
x1 = 0.651	1.089
x1 = 0.7	1.041
x1 = 0.8	0.9504
x1 = 0.861	0.8988
